Patent US11053409B2, “Compositions for containers and other articles and methods of using same” (priority 2011, dated 2021)

Test system: MCF-7, clone WS8, cells
Assay: MCF-7 cell proliferation assay of estrogenic activity
Assay type: cell-based, human
Conditions: logarithmic (base 10) Relative Proliferative Effect relative to 17-beta estradiol; values stated as expected or measured
Description: The MCF-7 assay uses MCF-7, clone WS8, cells to measure whether and to what extent a substance induces cell proliferation via estrogen receptor (ER)-mediated pathways. The method is described in “Test Method Nomination: MCF-7 Cell Proliferation Assay of Estrogenic Activity” submitted for validation by CertiChem, Inc. to the National Toxicology Program Interagency Center for the Evaluation of Alternative Toxicological Methods (NICEATM) on Jan. 19, 2006 (available online at http://iccvam.niehs.nih.gov/methods/endocrine/endodocs/SubmDoc.pdf).
A brief summary of the method of the aforementioned MCF-7 assay is provided below. MCF-7, clone WS8, cells are maintained at 37° C. in RMPI (or Roswell Park Memorial Institute medium) containing Phenol Red (e.g., GIBCO Catalog Number 11875119) and supplemented with the indicated additives for routine culture. An aliquot of cells maintained at 37° C. are grown for 2 days in phenol-free media containing 5% charcoal stripped fetal bovine serum in a 25 cm^2 tissue culture flask. Using a robotic dispenser such as an epMotion 5070 unit, MCF-7 cells are then seeded at 400 cells per well in 0.2 ml of hormone-free culture medium in Corning 96-well plates. The cells are adapted for 3 days in the hormone-free culture medium prior to adding the chemical to be assayed for estrogenic activity. The media containing the test chemical is replaced daily for 6 days. At the end of the 7-day exposure to the test chemical, the media is removed, the wells are washed once with 0.2 ml of HBSS (Hanks' Balanced Salt Solution), and then assayed to quantify amounts of DNA per well using a micro-plate modification of the Burton diphenylamine (DPA) assay, which is used to calculate the level of cell proliferation.
RPE is the ratio between the EC50 of the test chemical and the EC50 of the control substance 17-beta estradiol times 100, where EC50 is “effective concentration 50%” or half-maximum stimulation concentration for cell proliferation measured as total DNA in the MCF-7 assay.

SMILES	Log RPE
Cc1cc(Cc2cc(C)c(O)c(C)c2)cc(C)c1O [Structure 6]	less than −4
Oc1ccc(Cc2ccc(O)cc2)cc1 [Bisphenol F, reference compound]	−2
Cc1cc(CCc2cc(C)c(O)c(C)c2)cc(C)c1O [Structure 2]	−3
CC/C(=C(/CC)c1ccc(O)cc1)c1ccc(O)cc1 [diethylstilbestrol, reference compound]	about 2
CC(c1ccccc1)(c1ccc(O)cc1)c1ccc(O)cc1 [Structure 4]	−3
Cc1cc(Cc2cc(C)cc(C(C)(C)C)c2O)c(O)c(C(C)(C)C)c1 [Structure 9]	less than −4
CC(C)(C)c1cc(Cc2cc(C(C)(C)C)c(O)c(C(C)(C)C)c2)cc(C(C)(C)C)c1O [Structure 8]	less than −4
C[C@]12CC[C@@H]3c4ccc(O)cc4CC[C@H]3[C@@H]1CC[C@@H]2O [17β-estradiol, reference compound]	2.00
CC(c1ccc(O)cc1)(c1ccc(O)cc1)c1ccc(O)cc1 [Structure 3]	−3
Cc1cc(C(C)(C)c2cc(C)c(O)c(C)c2)cc(C)c1O [Structure 1]	−2
Cc1cc(Cc2cc(C)cc(C3(C)CCCCC3)c2O)c(O)c(C2(C)CCCCC2)c1 [Structure 13]	less than −4
C/C=C(/C(=C/C)c1ccc(O)cc1)c1ccc(O)cc1 [dienestrol, reference compound]	about 2
CC(C)(c1ccc(O)cc1)c1ccc(C(C)(C)c2ccc(O)cc2)cc1 [Structure 10]	less than −4
O=c1c(-c2ccc(O)cc2)coc2cc(O)cc(O)c12 [Genistein, reference compound]	−2
O=S(=O)(c1ccc(O)cc1)c1ccc(O)cc1 [Bisphenol S, reference compound]	−2
Oc1ccccc1Cc1ccccc1O [Structure 11]	less than −4
CCc1cc(Cc2cc(CC)cc(C(C)(C)C)c2O)c(O)c(C(C)(C)C)c1 [Structure 15]	less than −4
CCCC(c1cc(C(C)(C)C)c(O)cc1C)c1cc(C(C)(C)C)c(O)cc1C [Structure 7]	less than −4

Molecular target: T1, human estrogen receptor (Homo sapiens, UniProt P03372)
T1 sequence (P03372 1-595): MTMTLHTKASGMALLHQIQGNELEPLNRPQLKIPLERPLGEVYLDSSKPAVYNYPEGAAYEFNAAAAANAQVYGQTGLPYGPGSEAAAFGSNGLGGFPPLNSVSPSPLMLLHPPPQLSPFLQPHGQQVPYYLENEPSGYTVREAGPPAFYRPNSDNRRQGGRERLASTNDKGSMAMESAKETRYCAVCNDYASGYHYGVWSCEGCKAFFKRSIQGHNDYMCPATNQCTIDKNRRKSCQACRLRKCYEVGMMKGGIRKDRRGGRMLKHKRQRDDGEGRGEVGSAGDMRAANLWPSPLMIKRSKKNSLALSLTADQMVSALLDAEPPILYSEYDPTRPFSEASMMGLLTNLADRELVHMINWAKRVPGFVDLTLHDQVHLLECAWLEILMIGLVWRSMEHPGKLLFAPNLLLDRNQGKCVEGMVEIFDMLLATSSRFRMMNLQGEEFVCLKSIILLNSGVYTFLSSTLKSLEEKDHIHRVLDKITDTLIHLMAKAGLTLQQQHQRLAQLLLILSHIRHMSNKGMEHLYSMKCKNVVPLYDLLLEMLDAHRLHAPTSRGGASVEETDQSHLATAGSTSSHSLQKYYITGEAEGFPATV
Assay: suitable in vitro assay whose results are directly correlated to the MCF-7 assay
Conditions: in vitro assay correlated to MCF-7 assay through common reference compounds

SMILES	estrogenic activity
Cc1cc(Cc2cc(C)c(O)c(C)c2)cc(C)c1O [Structure 6]	do not exhibit appreciable estrogenic activity
Cc1cc(Cc2cc(C)cc(C(C)(C)C)c2O)c(O)c(C(C)(C)C)c1 [Structure 9]	do not exhibit appreciable estrogenic activity
CC(C)(C)c1cc(Cc2cc(C(C)(C)C)c(O)c(C(C)(C)C)c2)cc(C(C)(C)C)c1O [Structure 8]	do not exhibit appreciable estrogenic activity
CC(C)(C)c1cc(O)c(C(C)(C)C)cc1O [Structure 12]	do not exhibit appreciable estrogenic activity
CCCC(c1cc(C(C)(C)C)c(O)cc1C)c1cc(C(C)(C)C)c(O)cc1C [Structure 7, 4,4′-butylidenebis(2-t-butyl-5-methylphenol)]	do not exhibit appreciable estrogenic activity

Test system: not listed separately
Assay: suitable genotoxicity assays (e.g., Ames II assay)
Assay type: cell-based
Conditions: not given
Procedure: The mixture was stirred for 30 minutes at −10° C. Epichlorohydrin (1.9 liters, 24.2 moles) was added via dropping funnel at −10 to −5° C. The solution was allowed to warm up to room temperature and then was heated for 16 hours at a temperature of from 75 to 82° C. After cooling down to ambient temperature, the mixture was added to cold tap water (12 liters). Ethyl acetate (5 liters) was added to the mixture, which was stirred for 10 minutes and separated. The aqueous layer was extracted again with additional ethyl acetate (3 liters). The combined ethyl acetate extracts were washed twice with brine (2×6 liters), dried over anhydrous sodium sulfate (600 grams), and filtered. The solvent was removed under reduced pressure to give 887 grams of crude product as a purple oil. The crude product was dissolved in toluene (600 milliliters) and passed over a silica gel pad (1.4 kilograms), and eluted with a mixture of toluene and heptane (8 parts toluene to 2 parts heptane). The fractions containing product were combined and evaporated under reduced pressure. The product was mostly the desired diepoxide (756 grams, yellow oil which crystallizes in time), with some monoepoxide present. The purified material (756 grams) was dissolved at 70° C. in 2-propanol (2.3 liters) and then allowed to cool down to room temperature overnight. […]

SMILES	genotoxicity
CC(C)(C)c1cc(Cc2cc(C(C)(C)C)c(OCC3CO3)c(C(C)(C)C)c2)cc(C(C)(C)C)c1OCC1CO1 (stereo not shown) [Diglycidyl ether of 4,4′-methylenebis(2,6-di-tert-butylphenol)]	non-genotoxic
CCCC(c1cc(C(C)(C)C)c(OCC2CO2)cc1C)c1cc(C(C)(C)C)c(OCC2CO2)cc1C (stereo not shown)	non-genotoxic
